Consider 18 molecules from ChEMBL document CHEMBL1152048, “N-(1-phenyl-2-benzimidazolyl)-N-phenylurea derivatives as potent in hibitors of acylcoa:cholesterol acyltransferase (ACAT)” (Bioorg Med Chem Lett, 1995).

Experiment [1] deals with T1, Acyl-CoA:cholesterol acyltransferase (Oryctolagus cuniculus) (UniProt Q95214).
T1 sequence (whole entry): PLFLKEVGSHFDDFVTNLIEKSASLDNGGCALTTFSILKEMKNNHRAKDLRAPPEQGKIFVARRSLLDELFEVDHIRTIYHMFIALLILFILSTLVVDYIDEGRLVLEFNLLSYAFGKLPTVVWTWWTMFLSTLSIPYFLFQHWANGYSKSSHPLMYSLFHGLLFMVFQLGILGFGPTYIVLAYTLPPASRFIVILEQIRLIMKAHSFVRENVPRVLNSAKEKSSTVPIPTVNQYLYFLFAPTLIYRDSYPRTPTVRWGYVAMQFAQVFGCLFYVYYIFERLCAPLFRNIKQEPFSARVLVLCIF
Put plainly: In vitro inhibitory activity towards acyl CoA cholesterol acyltransferase (ACAT) of cholesterol-fed rabbits by the displacement of [14C]oleolyl-CoA at 1 uM.

The subject of a further experiment is Cricetinae gen. sp. Put plainly: Compound was tested in vivo at a dose of 10 (mg/kg) for percent inhibition in increased serum total cholesterol in golden hamsters fed with a diet containing 2% cholesterol. It is filed as functional, Mesocricetus auratus.
For experiment [2], the target named is T2, Acyl-CoA:cholesterol acyltransferase (Oryctolagus cuniculus, UniProt Q95214).
T2 sequence (Q95214 whole entry): T1 sequence (whole entry)
The experiment is described as follows: In vitro inhibitory activity towards acyl CoA cholesterol acyltransferase (ACAT) of cholesterol-fed rabbits by the displacement of [14C]oleolyl-CoA. Background: In a radioligand displacement assay an active substance lowers the binding of a labelled ligand.

Molecules are shown by their SMILES.

`O=C(Nc1ccc(F)cc1F)Nc1nc2ccccc2n1-c1ccccc1Cl` showed an inhibition in experiment [1] of 27%. With `CC(C)c1cccc(C(C)C)c1NC(=O)Nc1nc2ccccc2n1-c1ccccc1Cl`, the Reduction in the experiment on Cricetinae gen. sp. was 80%. For the same molecule, in experiment [2], the IC50 is 18 nM. In turn, `Cc1ccccc1-n1c(NC(=O)Nc2c(C(C)C)cccc2C(C)C)nc2ccccc21` returned an IC50 in experiment [2] of 19 nM.

On to `CC(C)c1cccc(C(C)C)c1NC(=O)Nc1nc2ccccc2n1-c1cc(C(=O)O)ccc1Cl`, for which, in experiment [1], the inhibition was 2%.

In turn, `CC(C)c1cccc(C(C)C)c1NC(=O)Nc1nc2ccccc2n1-c1ccccc1O` showed a half-inhibitory concentration (IC50) in experiment [2] of 200 nM.

Molecule `Cc1cc(C)c(NC(=O)Nc2nc3ccccc3n2-c2c(Cl)cccc2Cl)c(C)c1` gave an inhibition in experiment [1] of 24%. Turning to `CC(C)c1cccc(C(C)C)c1NC(=O)Nc1nc2ccccc2n1-c1c(Cl)cccc1Cl`, the Reduction in the experiment with Cricetinae gen. sp. is given as 74%. Besides, the IC50 in experiment [2] is 11 nM. Regarding `COc1ccccc1-n1c(NC(=O)Nc2c(C(C)C)cccc2C(C)C)nc2ccccc21`, in experiment [2], the half-maximal inhibitory concentration (IC50) is 20 nM.

As for `CC(C)c1cccc(C(C)C)c1NC(=O)Nc1nc2ccccc2n1-c1ccc(Cl)cc1`, in experiment [2], the half-inhibitory concentration (IC50) was found to be 280 nM. Still for that read-out and setting: as for `Cc1cccc(C)c1NC(=O)Nc1nc2ccccc2n1-c1ccccc1Cl`, the figure is 420 nM; as for `CC(C)c1cccc(C(C)C)c1NC(=O)Nc1nc2ccccc2n1-c1ccccc1`, 66 nM. `CC(C)c1cccc(C(C)C)c1NC(=O)Nc1nc2cccnc2n1-c1ccccc1Cl` showed a Reduction with Cricetinae gen. sp. of 76%. In experiment [2], this molecule yielded a half-maximal inhibitory concentration (IC50) of 33 nM. With `CC(C)c1cccc(C(C)C)c1NC(=O)Nc1nc2ccccc2n1-c1cccc(Cl)c1`, the half-maximal inhibitory concentration (IC50) in experiment [2] came to 20 nM. For the molecule `CC(C)c1cccc(C(C)C)c1NC(=O)Nc1nc2ccccc2n1-c1ncccc1Cl`, the IC50 in experiment [2] stood at 100 nM. `CC(C)c1cccc(C(C)C)c1NC(=O)Nc1nc2ccccc2n1-c1ccccc1Br` yielded a Reduction in the experiment on Cricetinae gen. sp. of 37%. This molecule also gave a concentration for half-maximal inhibition (IC50) in experiment [2] of 22 nM. On to `CC(C)c1cccc(C(C)C)c1NC(=O)Nc1nc2ccccc2n1-c1ccccc1N(C)C`, for which, in the experiment on Cricetinae gen. sp., the Reduction stood at 102%. In experiment [2], this molecule registered a concentration for half-maximal inhibition (IC50) of 41 nM. As for `CC(C)c1cccc(C(C)C)c1NC(=O)Nc1nc2ccccc2n1-c1ccccc1C(F)(F)F`, in experiment [2], the 50% inhibitory concentration (IC50) was 72 nM. Same read-out and setting: the figure for `Cc1ncccc1-n1c(NC(=O)Nc2c(C(C)C)cccc2C(C)C)nc2ccccc21` is 100 nM.

As a reminder, the inhibition is how much of the control response was suppressed. Low readings indicate a response near the control, high ones a response far below the control. In general, IC50 refers to the concentration at which inhibition is half-maximal. A low value points to higher potency.
